{"source": "patent US9624215B2", "about": "“Amine derivative or salt thereof” (TOYAMA CHEMICAL CO., LTD., priority 2012, dated 2017)", "tested_on": "normal human neonatal foreskin epidermal keratinocytes (NHEK-F)", "test": "Cell proliferation inhibition test", "type": "cell-based", "conditions": "Keratinocyte, 72 h, NHEK-F cells, three days incubation, ATPlite or CellTiterGlo, read-out: IC50 (concentration of the compound at which the cell count is reduced by 50%)", "experimental": "2×10^3 normal human neonatal foreskin epidermal keratinocytes (NHEK-F) (Kurabo, KK-4009) were suspended in 100 μL of Humedia-EG2 (Kurabo, KK-2150S) medium, plated in a 96-well plate and incubated overnight. The test compound was added on the following day and the cells were incubated for further three days. The cell count was determined using ATPlite (PerkinElmer, 6016739) or CellTiterGlo (Promega, G7573).\nThe inhibition rate was calculated from the following formula to determine the concentration of the compound at which the cell count is reduced by 50% (IC50). Inhibition rate (%)=100−(cell count in the presence of test compound/cell count in the absence of test compound)×100", "data": [{"compound": "O=C(O)c1cc(Cl)ccc1Nc1ccc2c(ccn2Cc2cccc(OCc3ccc4ccccc4n3)c2)c1", "note": "[Example 249, 5-chloro-2-((1-(3-(quinolin-2-ylmethoxy)benzyl)-1H-indol-5-yl)amino)benzoic acid]", "values": [{"measurement": "IC50", "value": "≤ 10", "unit": "nM"}]}, {"compound": "O=C(O)c1cc(Cl)ccc1Nc1ccc2c(ccn2Cc2ccc3ccccc3n2)c1", "note": "[Example 251, 5-chloro-2-((1-(quinolin-2-ylmethyl)-1H-indol-5-yl)amino)benzoic acid]", "values": [{"measurement": "IC50", "value": "10 to 100", "unit": "nM"}]}, {"compound": "O=C(O)c1cc(Cl)ccc1Nc1ccc2c(ccn2CC2CCCCC2)c1", "note": "[Example 257, 5-chloro-2-((1-(cyclohexylmethyl)-1H-indol-5-yl)amino)benzoic acid]", "values": [{"measurement": "IC50", "value": "≤ 10", "unit": "nM"}]}, {"compound": "O=C(O)c1cc(Cl)ccc1Nc1ccc2c(ccn2-c2cscn2)c1", "note": "[Example 271, 5-chloro-2-((1-(thiazol-4-yl)-1H-indol-5-yl)amino)benzoic acid]", "values": [{"measurement": "IC50", "value": "10 to 100", "unit": "nM"}]}, {"compound": "O=C(O)c1cc(Cl)ccc1Nc1ccc2c(ccn2Cc2cccc(OCCN3CCOCC3)c2)c1", "note": "[Example 296, 5-chloro-2-((1-(3-(2-morpholinoethoxyl)benzyl)-1H-indol-5-yl)amino)benzoic acid]", "values": [{"measurement": "IC50", "value": "10 to 100", "unit": "nM"}]}, {"compound": "O=C(O)c1cc(Cl)ccc1Nc1ccc2c(ccn2Cc2cscn2)c1", "note": "[Example 302, 5-chloro-2-((1-(thiazol-4-ylmethyl)-1H-indol-5-yl)amino)benzoic acid]", "values": [{"measurement": "IC50", "value": "10 to 100", "unit": "nM"}]}, {"compound": "O=C(O)c1cc(Cl)ccc1Nc1ccc2c(ccn2-c2ccccn2)c1", "note": "[Example 311, 5-chloro-2-((1-(pyridin-2-yl)-1H-indol-5-yl)amino)benzoic acid]", "values": [{"measurement": "IC50", "value": "≤ 10", "unit": "nM"}]}, {"compound": "O=C(O)c1cc(Cl)ccc1Nc1ccc2c(ccn2-c2cnccn2)c1", "note": "[Example 313, 5-chloro-2-((1-(pyrazin-2-yl)-1H-indol-5-yl)amino)benzoic acid]", "values": [{"measurement": "IC50", "value": "100 to 1000", "unit": "nM"}]}, {"compound": "O=C(O)c1cc(Cl)ccc1Nc1ccc2c(ccn2-c2ccncc2)c1", "note": "[Example 315, 5-chloro-2-((1-(pyridin-4-yl)-1H-indol-5-yl)amino)benzoic acid]", "values": [{"measurement": "IC50", "value": "10 to 100", "unit": "nM"}]}, {"compound": "O=C(O)c1cc(Cl)ccc1Nc1ccc2c(ccn2-c2cnc3ccccc3c2)c1", "note": "[Example 317, 5-chloro-2-((1-(quinolin-3-yl)-1H-indol-5-yl)amino)benzoic acid]", "values": [{"measurement": "IC50", "value": "≤ 10", "unit": "nM"}]}, {"compound": "CSc1nccc(-n2ccc3cc(Nc4ccc(Cl)cc4C(=O)O)ccc32)n1", "note": "[Example 319, 5-chloro-2-((1-(2-(methylthio)pyrimidin-4-yl)-1H-indol-5-yl)amino)benzoic acid]", "values": [{"measurement": "IC50", "value": "10 to 100", "unit": "nM"}]}, {"compound": "O=C(O)c1cc(Cl)ccc1Nc1ccc2c(ccn2Cc2ccccn2)c1", "note": "[Example 341, 5-chloro-2-((1-(pyridin-2-ylmethyl)-1H-indol-5-yl)amino)benzoic acid]", "values": [{"measurement": "IC50", "value": "10 to 100", "unit": "nM"}]}, {"compound": "COc1ccc(Cn2ccc3cc(Nc4ccc(Cl)cc4C(=O)O)ccc32)cc1", "note": "[Example 347, 5-chloro-2-((1-(4-methoxybenzyl)-1H-indol-5-yl)amino)benzoic acid]", "values": [{"measurement": "IC50", "value": "10 to 100", "unit": "nM"}]}, {"compound": "O=C(O)c1cc(Cl)ccc1Nc1ccc2c(ccn2Cc2cccnc2)c1", "note": "[Example 349, 5-chloro-2-((1-(pyridin-3-ylmethyl)-1H-indol-5-yl)amino)benzoic acid]", "values": [{"measurement": "IC50", "value": "100 to 1000", "unit": "nM"}]}, {"compound": "O=C(O)c1cc(-c2ccccc2)ccc1Nc1ccc2c(ccn2Cc2ccccc2)c1", "note": "[Example 359, 4-((1-Benzyl-1H-indol-5-yl)amino)-[1,1′-biphenyl]-3-carboxylic acid]", "values": [{"measurement": "IC50", "value": "10 to 100", "unit": "nM"}]}, {"compound": "O=C(O)c1cc(C2CC2)cnc1Nc1cccc2c(-c3ccccc3)cccc12", "note": "[Example 367, 5-cyclopropyl-2-((5-phenylnaphthalen-1-yl)amino)nicotinic acid]", "values": [{"measurement": "IC50", "value": "≤ 10", "unit": "nM"}]}, {"compound": "O=C(O)c1cc(C2CC2)cnc1Nc1cccc2c(=O)n(-c3ccccc3)cnc12", "note": "[Example 369, 5-cyclopropyl-2-((4-oxo-3-phenyl-3,4-dihydroquinazolin-8-yl)amino)nicotinic acid]", "values": [{"measurement": "IC50", "value": "100 to 1000", "unit": "nM"}]}, {"compound": "O=C(O)c1cc(C2CC2)cnc1Nc1cccc2ccccc12", "note": "[Example 371, 5-cyclopropyl-2-(naphthalen-1-ylamino)nicotinic acid]", "values": [{"measurement": "IC50", "value": "100 to 1000", "unit": "nM"}]}, {"compound": "O=C(O)c1cc(C2CC2)ccc1Nc1ccc2[nH]cc(-c3ccccc3)c2c1", "note": "[Example 377, 5-cyclopropyl-2-((3-phenyl-1H-indol-5-yl)amino)benzoic acid]", "values": [{"measurement": "IC50", "value": "10 to 100", "unit": "nM"}]}, {"compound": "CC(C)c1cnc(Nc2ccc3c(ccn3Cc3ccccc3)c2)c(C(=O)O)c1", "note": "[Example 379, 2-((1-benzyl-1H-indol-5-yl)amino)-5-isopropylnicotinic acid]", "values": [{"measurement": "IC50", "value": "10 to 100", "unit": "nM"}]}, {"compound": "CCc1cnc(Nc2ccc3c(ccn3Cc3ccccc3)c2)c(C(=O)O)c1", "note": "[Example 381, 2-((1-benzyl-1H-indol-5-yl)amino)-5-ethylnicotinic acid]", "values": [{"measurement": "IC50", "value": "10 to 100", "unit": "nM"}]}, {"compound": "O=C(O)c1cc(C2CC2)cnc1Nc1ccc2c(c1)cc(-c1ccccc1)n2Cc1ccccc1", "note": "[Example 387, 2-((1-benzyl-2-phenyl-1H-indol-5-yl)amino)-5-cyclopropylnicotinic acid]", "values": [{"measurement": "IC50", "value": "10 to 100", "unit": "nM"}]}, {"compound": "CC(C)(C)c1cc2cc(Nc3ncc(C4CC4)cc3C(=O)O)ccc2[nH]1", "note": "[Example 389, 2-((2-(tert-butyl)-1H-indol-5-yl)amino)-5-cyclopropylnicotinic acid]", "values": [{"measurement": "IC50", "value": "100 to 1000", "unit": "nM"}]}, {"compound": "Cc1cc2cc(Nc3ncc(C4CC4)cc3C(=O)O)ccc2n1C", "note": "[Example 391, 5-cyclopropyl-2-((1,2-dimethyl-1H-indol-5-yl)amino)nicotinic acid]", "values": [{"measurement": "IC50", "value": "100 to 1000", "unit": "nM"}]}, {"compound": "Cn1cc(C2CC2)c2cc(Nc3ncc(C4CC4)cc3C(=O)O)ccc21", "note": "[Example 393, 5-cyclopropyl-2-((3-cyclopropyl-1-methyl-1H-indol-5-yl)amino)nicotinic acid]", "values": [{"measurement": "IC50", "value": "10 to 100", "unit": "nM"}]}, {"compound": "O=C(O)c1cc(C2CC2)cnc1Nc1ccc2c(cnn2Cc2ccccc2)c1", "note": "[Example 395, 2-((1-benzyl-1H-indazol-5-yl)amino)-5-cyclopropylnicotinic acid]", "values": [{"measurement": "IC50", "value": "10 to 100", "unit": "nM"}]}, {"compound": "O=C(O)c1cc(C2CC2)cnc1Nc1ccc2c(c1)OCC(=O)N2c1ccccc1", "note": "[Example 399, 5-cyclopropyl-2-((3-oxo-4-phenyl-3,4-dihydro-2H-benzo[b][1,4]oxazin-7-yl)amino)nicotinic acid]", "values": [{"measurement": "IC50", "value": "100 to 1000", "unit": "nM"}]}, {"compound": "O=C(O)c1cc(C2CC2)cnc1Nc1cccc2c1ccc(=O)n2-c1ccccc1", "note": "[Example 401, 5-cyclopropyl-2-((2-oxo-1-phenyl-1,2-dihydroquinolin-5-yl)amino)nicotinic acid]", "values": [{"measurement": "IC50", "value": "100 to 1000", "unit": "nM"}]}, {"compound": "O=C(O)c1cc(C2CC2)cnc1Nc1ccc2c(c1)Cc1ccccc1-2", "note": "[Example 405, 2-((9H-fluoren-2-yl)amino)-5-cyclopropylnicotinic acid]", "values": [{"measurement": "IC50", "value": "10 to 100", "unit": "nM"}]}, {"compound": "Cn1ccc2cc(Nc3ncc(C4CC4)cc3C(=O)O)cc(C3CC3)c21", "note": "[Example 409, 5-cyclopropyl-2-((7-cyclopropyl-1-methyl-1H-indol-5-yl)amino)nicotinic acid]", "values": [{"measurement": "IC50", "value": "10 to 100", "unit": "nM"}]}, {"compound": "CCc1cc(Nc2ncc(C3CC3)cc2C(=O)O)cc2ccn(CC)c12", "note": "[Example 413, 5-cyclopropyl-2-((1,7-diethyl-1H-indol-5-yl)amino)nicotinic acid]", "values": [{"measurement": "IC50", "value": "10 to 100", "unit": "nM"}]}, {"compound": "O=C(O)c1cc(C2CC2)cnc1Nc1ccc2c(ccn2CC2CCCCO2)c1", "note": "(stereo not shown) [Example 414, 5-cyclopropyl-2-((1-((tetrahydro-2H-pyran-2-yl)methyl)-1H-indol-5-yl)amino)nicotinic acid]", "values": [{"measurement": "IC50", "value": "10 to 100", "unit": "nM"}]}, {"compound": "CCCn1ccc2c(Nc3ncc(C4CC4)cc3C(=O)O)cccc21", "note": "[Example 419, 5-cyclopropyl-2-((1-propyl-1H-indol-4-yl)amino)nicotinic acid]", "values": [{"measurement": "IC50", "value": "10 to 100", "unit": "nM"}]}, {"compound": "O=C(O)c1cc(C2CC2)cnc1Nc1cccc2c1ccn2CC1CCCCO1", "note": "(stereo not shown) [Example 423, 5-cyclopropyl-2-((1-((tetrahydro-2H-pyran-2-yl)methyl)-1H-indol-4-yl)amino)nicotinic acid]", "values": [{"measurement": "IC50", "value": "10 to 100", "unit": "nM"}]}, {"compound": "O=C(O)c1cc(C2CC2)cnc1Nc1cccc2c1ccn2CC1CCOC1", "note": "(stereo not shown) [Example 427, 5-cyclopropyl-2-((1-((tetrahydrofuran-3-yl)methyl)-1H-indol-4-yl)amino)nicotinic acid]", "values": [{"measurement": "IC50", "value": "10 to 100", "unit": "nM"}]}, {"compound": "O=C(O)c1cc(C2CC2)cnc1Nc1cccc2c1ccn2CC1CCCCC1", "note": "[Example 429, 2-((1-(cyclohexylmethyl)-1H-indol-4-yl)amino)-5-cyclopropylnicotinic acid]", "values": [{"measurement": "IC50", "value": "≤ 10", "unit": "nM"}]}, {"compound": "CC(C)Cn1ccc2c(Nc3ncc(C4CC4)cc3C(=O)O)cccc21", "note": "[Example 431, 5-cyclopropyl-2-((1-isobutyl-1H-indol-4-yl)amino)nicotinic acid]", "values": [{"measurement": "IC50", "value": "≤ 10", "unit": "nM"}]}, {"compound": "O=C(O)c1cc(C2CC2)cnc1Nc1cccc2c1ccn2-c1ccccc1", "note": "[Example 433, 5-cyclopropyl-2-((1-phenyl-1H-indol-4-yl)amino)nicotinic acid]", "values": [{"measurement": "IC50", "value": "≤ 10", "unit": "nM"}]}, {"compound": "CC(C)n1ccc2c(Nc3ncc(C4CC4)cc3C(=O)O)cccc21", "note": "[Example 435, 5-cyclopropyl-2-((1-isopropyl-1H-indol-4-yl)amino)nicotinic acid]", "values": [{"measurement": "IC50", "value": "10 to 100", "unit": "nM"}]}, {"compound": "O=C(O)c1cc(C2CC2)cnc1Nc1cccc2c1ccn2CC1CC1", "note": "[Example 437, 5-cyclopropyl-2-((1-(cyclopropylmethyl)-1H-indol-4-yl)amino)nicotinic acid]", "values": [{"measurement": "IC50", "value": "10 to 100", "unit": "nM"}]}, {"compound": "O=C(O)c1cc(C2CC2)cnc1Nc1ccc2c(ccn2Cc2ccccc2C(F)(F)F)c1", "note": "[Example 449, 5-cyclopropyl-2-((1-(2-(trifluoromethyl)benzyl)-1H-indol-5-yl)amino)nicotinic acid]", "values": [{"measurement": "IC50", "value": "10 to 100", "unit": "nM"}]}, {"compound": "O=C(O)c1cc(C2CC2)cnc1Nc1ccc2c(ccn2Cc2ccc(C(F)(F)F)cc2)c1", "note": "[Example 451, 5-cyclopropyl-2-((1-(4-(trifluoromethyl)benzyl)-1H-indol-5-yl)amino)nicotinic acid]", "values": [{"measurement": "IC50", "value": "10 to 100", "unit": "nM"}]}, {"compound": "N#Cc1ccccc1Cn1ccc2cc(Nc3ncc(C4CC4)cc3C(=O)O)ccc21", "note": "[Example 452, 2-((1-(2-cyanobenzyl)-1H-indol-5-yl)amino)-5-cyclopropylnicotinic acid]", "values": [{"measurement": "IC50", "value": "10 to 100", "unit": "nM"}]}]}
